The record followed here is PubChem BioAssay AID1626 (SRMLSC, 2009).

For this experiment, the system named is M. tuberculosis H37Rv growth inhibition. Put plainly: M. tuberculosis H37Rv growth inhibitors, H37Rv strain (AID 1626). Particulars: for IC90: measured here: IC90 against H37Rv; for CC50: measured here: Vero cell cytotoxicity.

What is called IC50 is the concentration at which inhibition is half-maximal. In general, IC90 refers to the point of the concentration-response curve where the effect stands at 90%. A word on the CC50: it is the concentration giving 50% cytotoxicity. As to `CC(C)Cc1cc(C(=O)Nc2cc(Br)ccc2O)no1`, the IC50 is 3.9 µM, the IC90 is more than 100 µM and the CC50 was determined as 26.5 µM.

With `Cc1ccc(Nc2cc(C)nn2-c2nc(C)cc(C)n2)cc1`, the IC50 was less than 0.195 µM, the IC90 was 56.1 µM and the CC50 amounted to 13.5 µM.

For the compound `Cc1nc2ccccc2n1/N=C/c1ccc([N+](=O)[O-])s1`, the IC50 is less than 0.195 µM, the IC90 is less than 0.195 µM and the CC50 amounted to 5.49 µM.

In the case of `CCOc1ccc(-c2cc(CCCC(=O)Nc3cccc(OC)c3)no2)cc1`, the IC50 is 10.7 µM, the IC90 was more than 100 µM and the CC50 is more than 40 µM.

Regarding `c1ccc(-c2cc3c(NCC4COc5ccccc5O4)ncnc3s2)cc1` (configuration not stated), the IC90 was more than 100 µM and the CC50 was more than 40 µM.

As to `Cc1cc(Nc2ccccc2)nc(NCc2ccccc2)n1`, the IC50 was 10.9 µM, the IC90 was determined as 14.4 µM and the CC50 was determined as 23.3 µM.

On to `CNC(=O)c1csc(-c2ccc(Cl)cc2)n1`, for which the IC50 was 38.6 µM and the IC90 is more than 100 µM.

For the compound `OC(CNCC(c1ccc(Cl)cc1Cl)c1c[nH]c2ccccc12)c1ccccc1` (configuration not stated), the IC50 is 6.68 µM, the IC90 turned out to be 10.3 µM and the CC50 turned out to be 11.2 µM.

On to `NC1CCN(c2nc3c(cc2F)c(=O)c(C(=O)O)cn3-c2ccc(F)cc2F)C1` (configuration not stated), for which the concentration for half-maximal inhibition (IC50) is 1.29 µM and the IC90 is 4.21 µM.

For the compound `CC(C)(C)C(=O)COC(=O)c1cc2ccccc2cc1O`, the IC50 is 2.73 µM and the IC90 came out at 16.5 µM.

Turning to `CC(=O)Nc1cccc(OCc2ccc(F)cc2)c1`, the IC90 is more than 100 µM and the CC50 was more than 40 µM.

With `CCCCCCCCn1cnc2c(N)c(C)c(C)cc21`, the IC50 is 15.9 µM and the IC90 was 21.4 µM.

Regarding `Cc1[nH]n(-c2ccc(Br)cc2)c(=O)c1C=Nc1ccc(S(=O)(=O)Nc2nccs2)cc1`, the IC50 is 10.9 µM, the IC90 is more than 100 µM and the CC50 was more than 40 µM.

As to `Clc1ccc2nc(-c3ccccn3)c(Nc3ccc4c(c3)OCO4)n2c1`, the IC50 was 2.56 µM, the IC90 was found to be 4.43 µM and the CC50 stood at 11.1 µM.

Take `Nc1nnc(Sc2ncccc2[N+](=O)[O-])s1`: the IC50 is 9.58 µM and the IC90 amounted to 12.9 µM.

For the compound `Cc1ccc(Nc2c(-c3ccccn3)nc3cc(C)ccn23)cc1`, the IC50 is 1.38 µM, the IC90 is 1.55 µM and the CC50 was 1.39 µM.

Take `O=C(Nc1ccc(N2CCN(C(=O)c3ccc(Cl)cc3)CC2)cc1)c1ccc([N+](=O)[O-])o1`: the IC50 is less than 0.195 µM, the IC90 is less than 0.195 µM and the CC50 worked out at 0.417 µM.

As to `CCOc1ccc(N/C=C\C(=O)c2ccc3c(c2)OCO3)cc1`, the IC50 is 4.53 µM and the IC90 was more than 100 µM.

In the case of `Cc1scc(C(=O)NCc2ccco2)c1-c1ccccc1`, the IC50 was 2.81 µM and the IC90 worked out at 9.77 µM.

Take `CCOC(=O)/C=C/C(=O)Nc1ccc(Oc2ccccc2)cc1`: the IC50 is 1.2 µM, the IC90 was more than 100 µM and the CC50 is more than 40 µM.

`CCOC(=O)N1CCN(C(=O)CSc2nc(-c3cccc(C)c3)ns2)CC1`: the IC50 is 0.734 µM, the IC90 was 0.828 µM and the CC50 was more than 40 µM.

For `CSc1cccc(NC(=O)CSc2nnc(C)s2)c1`, the IC50 is 97.1 µM and the IC90 was more than 100 µM.

Consider `CN(Cc1nc2ccccc2c(=O)[nH]1)Cc1nc2ccsc2c(=O)[nH]1`, for which the IC50 is 1.95 µM and the IC90 stood at 4.36 µM.

Regarding `Cc1ccc(-c2ccc(/C=N/c3ncn[nH]3)o2)cc1Cl`, the IC50 was 30.2 µM and the IC90 is more than 100 µM.

For `Cc1cc(C)n2c(SCc3ccc(Br)cc3)nnc2n1`, the CC50 was more than 40 µM.

`CCn1c([N+](=O)[O-])nc2c1c(=O)[nH]c(=O)n2C`: the IC50 was 0.823 µM, the IC90 was 1.64 µM and the CC50 stood at 11.6 µM.

Consider `c1ccc(-c2ccc3c(c2)c2c4n3CCN=C4CCC2)cc1`, for which the IC50 is 10.7 µM, the IC90 came out at 14.9 µM and the CC50 is 24.7 µM.

Take `CCC(/C=C1\Sc2ccc(OC)cc2N1CCO)=C\c1sc2ccc(OC)cc2[n+]1CCO`: the IC50 was 7.29 µM and the IC90 was found to be 10.2 µM.

Take `CCOC(=O)CSc1nc2c(c(-c3ccc(C)o3)c1C#N)CCCC2`: the IC50 is 2.36 µM and the IC90 came out at 3.53 µM.

Consider `CCOC(=O)Cc1csc(NC(=O)c2c(O)c3ccccc3n(CCC(C)C)c2=O)n1`, for which the IC50 was less than 0.195 µM, the IC90 came out at 0.224 µM and the CC50 turned out to be 8.48 µM.

Take `COC(=O)CSc1nnc(-c2ccc(NS(=O)(=O)c3ccccc3)cc2)o1`: the IC50 was 1.9 µM and the concentration for an effect of 90% (IC90) was found to be 5.72 µM.

In the case of `N=c1n(CCN2CCCCC2)c2ccccc2n1CC(=O)c1ccc(Cl)c(Cl)c1`, the concentration for half-maximal inhibition (IC50) was 8.28 µM, the IC90 amounted to 10.5 µM and the CC50 amounted to 19.8 µM.

As for `CCOC(=O)c1cnc(-n2nc(C)cc2C)nc1N(CC)CC`, the IC50 is 3.78 µM, the IC90 was found to be 6.53 µM and the CC50 is more than 40 µM.

Consider `CCCCCCOc1cccc(N)c1`, for which the IC50 is 16.9 µM and the IC90 was more than 100 µM.

In the case of `Cc1cccc(CSc2nnc(CCCCCNC(=O)OC(C)(C)C)o2)c1`, the IC50 was 15.3 µM, the IC90 was determined as 21.3 µM and the CC50 was more than 40 µM.

As to `Nc1nc2c(s1)COc1ccccc1-2`, the IC90 is more than 100 µM.

Take `CCCc1nn(C)c(C(=O)Nc2ccc(CC)cc2)c1Cl`: the IC90 is more than 100 µM.

With `CCOc1ccc(NCc2ccccc2OCc2cccc(F)c2)cc1`, the IC50 is 8.84 µM and the IC90 is more than 100 µM.

For `Cc1ccc2nc(-c3ccccn3)c(Nc3ccccc3C)n2c1`, the IC50 is 1.52 µM, the IC90 came out at 2.24 µM and the CC50 was 3.42 µM.

As for `CCOc1ccc(NC(=O)N(C2CCCCC2)C2CCN(C(C)=O)CC2)cc1`, the IC90 is more than 100 µM.

For `C=C1C(=O)O[C@@H]2C[C@@H](C)[C@@H]3C=CC(=O)[C@@]3(C)[C@@H](OC(C)=O)[C@H]12`, the IC50 is 2.07 µM, the IC90 came out at 3.51 µM and the CC50 worked out at 2.02 µM.

For the compound `Nc1ccc(OCc2ccco2)cc1`, the IC50 is 5.19 µM and the IC90 was more than 100 µM.

`CCOc1[nH]n(-c2ccccc2)c(=O)c1C=Nc1ccc(OC)cc1` registered an IC90 of more than 100 µM.

`COc1ccc(SN=C2C(C)=CC(=O)C=C2C)cc1`: the IC50 was 11 µM and the IC90 worked out at 12.3 µM.

Turning to `COc1cccc(C(=O)/C=C/c2ccc(N3CCCCC3)c([N+](=O)[O-])c2)c1`, the IC50 is 29.4 µM, the IC90 is more than 100 µM and the CC50 was determined as 27.2 µM.

Regarding `COc1ccc(CCNc2cc(C)nc3c(-c4ccccc4)c(C)nn23)cc1OC`, the IC50 is 3.56 µM and the IC90 was 8.82 µM.

In the case of `CCOC(=O)C1(CCOc2ccccc2)CCN(C(=O)c2ccc(-n3cccn3)cc2)CC1`, the IC50 is 27.2 µM, the IC90 was more than 100 µM and the CC50 was more than 40 µM.

In the case of `Cc1ccc2c(c1)Cc1nc3ccccc3nc1-2`, the IC50 was 83.5 µM, the concentration for an effect of 90% (IC90) was more than 100 µM and the CC50 was more than 40 µM.

On to `CCOC(=O)c1ccc(NC(=O)NS(=O)(=O)c2ccc(C)cc2)cc1`, for which the IC50 was 7.99 µM and the IC90 is more than 100 µM.

Consider `Cc1cc(NCCCn2ccnc2)n2nc(-c3ccc(Cl)cc3)cc2n1`, for which the IC50 was 11.1 µM, the IC90 turned out to be 15.8 µM and the CC50 was more than 40 µM.

The compound `Cc1ccc(S(=O)(=O)Nc2ccc(NC(=O)c3c(F)c(F)c(F)c(F)c3F)cc2)cc1` returned a CC50 of 21.8 µM.

Consider `CC1CC1C(=O)Nc1nc(-c2ccccn2)cs1` (configuration not stated), for which the IC50 was 2.13 µM, the IC90 came out at 4.75 µM and the CC50 was 25.9 µM.

As to `CN(C)c1ccc(N=Nc2nc3ccccc3n2C)cc1`, the IC50 is 0.939 µM, the IC90 is 2.73 µM and the CC50 was more than 40 µM.

The compound `O=C(NCc1ccco1)c1cc2n(n1)C(C(F)(F)F)CC(c1ccc(Cl)c(Cl)c1)N2` (configuration not stated) gave an IC90 of more than 100 µM and a CC50 of more than 40 µM.

In the case of `Cc1cccc(Nc2nnc(SCC(=O)Nc3cccnc3Cl)s2)c1`, the IC50 is 2.34 µM and the IC90 was determined as 8.03 µM.

For `COc1ccc(Oc2ccc(N/C=C/C(=O)C(C)(C)C)cc2)cc1`, the IC50 is 75 µM and the IC90 was more than 100 µM.

In the case of `COc1cccc(-c2nnc(SCC(=O)Nc3cc(C)on3)o2)c1`, the IC50 is 5.8 µM, the IC90 was 8.52 µM and the CC50 was more than 40 µM.

On to `Cn1c(C(C#N)C(=O)c2ccco2)nc2ccccc21` (configuration not stated), for which the IC50 is 6.99 µM and the IC90 is more than 100 µM.

Consider `Fc1ccc(Sc2nc(-c3ccccc3)nnc2C(F)(F)F)cc1`, for which the IC50 was 90.4 µM, the IC90 was more than 100 µM and the CC50 was more than 40 µM.

For the compound `COC(=O)CSc1nc2c(c(-c3ccco3)c1C#N)CCCC2`, the IC50 was 3.08 µM and the IC90 is 3.39 µM.

Take `C=CCn1c(SCc2ccc(C(=O)Nc3nccs3)cc2)nnc1-c1ccc(C)c(Cl)c1`: the IC50 is 6.82 µM, the IC90 is 17.6 µM and the half-maximal cytotoxic concentration (CC50) was found to be 32.9 µM.

Take `CCCc1cc(C(=O)Nc2nccs2)cs1`: the IC50 was 17.7 µM and the IC90 was more than 100 µM.

As to `O=c1oc(/C=C/c2ccccc2)nc2ccccc12`, the IC50 was 12.7 µM and the IC90 is more than 100 µM.

Take `COc1ccc(N2CN=C3SCC(=O)N3C2)cc1`: the IC50 is 46.5 µM and the IC90 was more than 100 µM.

Regarding `CCOC(=O)c1ccc(N2C(=O)c3n[nH]c(-c4ccco4)c3C2c2ccc([N+](=O)[O-])cc2)cc1` (configuration not stated), the IC50 was 9.07 µM, the concentration for an effect of 90% (IC90) was determined as 17 µM and the CC50 amounted to 28 µM.

As for `CCCOC(=O)c1ccc(NC(=O)Oc2ccccc2)cc1`, the IC50 is 4.53 µM and the IC90 is more than 100 µM.

Take `CCOC(=O)COc1ccc(/C=C2/SC(=Nc3ccccc3)N(Cc3cccnc3)C2=O)cc1OC`: the IC50 was 10.4 µM, the IC90 is more than 100 µM and the CC50 was more than 40 µM.

`Oc1cc(-c2ccccc2)c2ccccc2c1`: the IC50 is 27.2 µM, the IC90 was more than 100 µM and the CC50 is more than 40 µM.
